Read-outs that look alike come from different tables or passages of the source. Where a SMILES comes first, the peptide text is derived from it. [ ]: non-standard residue; d: D form. The star is where a group is joined. Malonyl(2,2-Me2,histaminyl) = CC(C)(C(=O)NCCc1cnc[nH]1)C(=O)*; d(hArg) = N=C(N)NCCCC[C@@H](N)C(=O)O; Gly(NCH2CH2Ph) = O=C(O)CNCCc1ccccc1; Hyp = O=C(O)[C@@H]1C[C@@H](O)CN1; hArg = N=C(N)NCCCC[C@H](N)C(=O)O; NMeN = CN[C@@H](CC(N)=O)C(=O)O; Aoc(2) = CCCCCC[C@H](N)C(=O)O; Phg = N[C@H](C(=O)O)c1ccccc1; Nle = CCCC[C@H](N)C(=O)O
Experiments:
[1] = biological target: T1, human orexin type 1 receptor (hOX1R) (Homo sapiens, UniProt O43613); experiment: Measurement of orexin type 1 receptor agonist activity (CHO cells, FLIPR TETRA intracellular Ca2+); assay type: cell-based
T1 construct: expressed in transfected cells
T1 sequence (O43613 1-425): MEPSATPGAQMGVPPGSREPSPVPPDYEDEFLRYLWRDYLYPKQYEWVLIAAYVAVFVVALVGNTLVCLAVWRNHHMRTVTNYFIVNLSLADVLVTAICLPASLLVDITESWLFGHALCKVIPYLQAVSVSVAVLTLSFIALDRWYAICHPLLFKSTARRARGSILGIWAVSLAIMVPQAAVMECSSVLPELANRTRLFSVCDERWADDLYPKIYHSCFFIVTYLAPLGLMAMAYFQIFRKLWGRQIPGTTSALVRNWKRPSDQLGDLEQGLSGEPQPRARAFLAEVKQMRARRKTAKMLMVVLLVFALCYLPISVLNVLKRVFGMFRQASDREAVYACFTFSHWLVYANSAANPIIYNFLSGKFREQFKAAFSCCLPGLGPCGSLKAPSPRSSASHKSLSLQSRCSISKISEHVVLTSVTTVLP
Text: (§1) In some embodiments, the assay uses cells stably expressing either human orexin type 2 or human orexin type 1 receptor. In some embodiments, the cells are obtained by inserting the Orexin receptor cDNA into pcDNA3.1(+) plasmid vector, identifying clones by G418 drug resistance selection, and/or growing a single clone for OX2R-CHO and OX1R-CHO in bulk. In some embodiments, the assay is detected using Fluorescent Imaging Plate Reader TETRA (FLIPR TETRA: manufactured by Molecular Devices). In some embodiments, the agonist activity of the test peptide is calculated assuming that the fluorescence value of the well containing only the dilution buffer is 0% and the fluorescence value of the well containing 10 nM human orexin A (Tocris) buffer is 100%.
(§2) Stable cell line generation. Obtainment of cells stably expressing either human orexin type 2 or human orexin type 1 receptor: to obtain a stable cell line the Orexin receptor cDNA was inserted into pcDNA3.1(+) plasmid vector and clones identified by G418 drug resistance selection. […] A single clone for OX2R-CHO and OX1R-CHO were grown in bulk and frozen to generate a cell bank for routine screening.
(§3) Measurement of orexin type 1 receptor agonist activity. Chinese hamster ovary (CHO) cells expressing human orexin type 1 receptor (hOX1R) were seeded in each well of 384 well black clear bottom plates (BD Flacon) at 10,000 cells per well and cultured for 24 h in an Ham's F12 (Gibco) medium containing 10% fetal calf serum (Sigma Aldrich) under the conditions of 37° C., 5% CO2. After removal of the medium, 50 μL of assay buffer 1 (0.1% bovine serum albumin (Sigma Aldrich), 20 mM HEPES (Molecular Dimensions), […] probenecid (Sigma Aldrich), 1× Calcium 5 dye (Molecular Devices) in Hank's balanced salt solution (Invitrogen)) was added, and the cells were incubated for 60 min under the conditions of 37° C., 5% CO2. A test peptide was dissolved in dimethyl sulfoxide (Sigma Aldrich) to 1 mM, and then diluted with assay buffer 2 (20 mM HEPES, Hank's balanced salt solution, 0.1% bovine serum albumin). For the reaction, a test peptide solution (10 μl) was added using Fluorescent Imaging Plate Reader TETRA (FLIPR TETRA: manufactured by Molecular Devices), a fluorescence value (excitation wavelength 488 nm, measurement wavelength 570 nm) of each well was measured every one second for 2 min, and the agonist activity was determined using the area of the fluorescence value as an indicator of intracellular Ca^2+ concentration. The agonist activity of the test peptide was calculated assuming that the fluorescence value of the well added with only the dilution buffer was 0% and the fluorescence value of the well added with 10 nM human orexin A (Tocris) buffer was 100%. As used herein, Emax indicates the value at 1 μM concentration when orexin A is converted to a full agonist (maximum value of agonist activity: 100%).

[2] = biological target: T2, human orexin type 2 receptor (hOX2R) (Homo sapiens, UniProt O43614); experiment: Measurement of orexin type 2 receptor agonist activity (CHO cells, FLIPR TETRA intracellular Ca2+); assay type: cell-based
T2 construct: expressed in transfected cells
T2 sequence (O43614 1-444): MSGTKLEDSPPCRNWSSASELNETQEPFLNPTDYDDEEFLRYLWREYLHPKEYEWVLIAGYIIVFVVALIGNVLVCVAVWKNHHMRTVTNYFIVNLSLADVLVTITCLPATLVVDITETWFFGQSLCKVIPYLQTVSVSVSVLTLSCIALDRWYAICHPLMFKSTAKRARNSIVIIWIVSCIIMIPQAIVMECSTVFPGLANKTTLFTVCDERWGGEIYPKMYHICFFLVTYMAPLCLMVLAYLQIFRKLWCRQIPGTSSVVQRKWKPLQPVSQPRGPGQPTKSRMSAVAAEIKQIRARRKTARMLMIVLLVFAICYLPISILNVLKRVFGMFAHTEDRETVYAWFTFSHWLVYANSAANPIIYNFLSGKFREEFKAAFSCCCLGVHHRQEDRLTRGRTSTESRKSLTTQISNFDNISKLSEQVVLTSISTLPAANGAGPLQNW
Text: as §1, §2
as §3, with “type 2” for “type 1”, “receptor (hOX2R)” for “receptor (hOX1R) were”

Structure (SMILES)	EC50 [1] [nM]	EC50 [2] [nM]	EC50 ([1]; 13 amino acid sequences, Example 4, read-out: OX1 pEC50 (converted)) [nM]	EC50 ([2]; 13 amino acid sequences, Example 4, read-out: OX2 pEC50 (converted)) [nM]
CCCCCC[C@H](NC(=O)[C@@H](NC(=O)[C@H](CC(C)C)NC(=O)[C@@H](NC(=O)CNC(=O)[C@@H](NC(=O)[C@H](C)NC(=O)[C@@H]1C[C@@H](O)CN1C(=O)[C@H](CC(N)=O)N(C)C(=O)CN(CCc1ccccc1)C(=O)[C@H](CCCCN)NC(=O)[C@@H]1CCCN1C(=O)[C@H](CCCCNC(=N)N)NC(=O)[C@H](CCC(N)=O)NC(=O)C(C)(C)C(=O)NCCc1cnc[nH]1)c1ccccc1)[C@@H](C)CC)[C@@H](C)O)C(N)=O [compound 8] ({Malonyl(2,2-Me2,histaminyl)}-Q[hArg]PK[Gly(NCH2CH2Ph)][NMeN][Hyp]A[Phg]GILT[Aoc(2)]-NH2)	> 10	< 0.1		
CCCCCC[C@H](NC(=O)[C@@H](NC(=O)[C@H](CC(C)C)NC(=O)[C@@H](NC(=O)CNC(=O)[C@@H](NC(=O)[C@H](C)NC(=O)[C@@H]1C[C@@H](O)CN1C(=O)[C@H](CC(N)=O)N(C)C(=O)CN(CCc1ccccc1)C(=O)[C@H](CCCNC(=N)N)NC(=O)[C@H](CCCNC(=N)N)NC(=O)[C@H]1CCCN1C(=O)[C@@H](CCCCNC(=N)N)NC(=O)[C@@H](CCC(N)=O)NC(=O)C(C)(C)C(=O)NCCc1cnc[nH]1)c1ccccc1)[C@@H](C)CC)[C@@H](C)O)C(N)=O [compound 18] ({Malonyl(2,2-Me2,histaminyl)}-[dQ][d(hArg)][dP]RR[Gly(NCH2CH2Ph)][NMeN][Hyp]A[Phg]GILT[Aoc(2)]-NH2)	> 10	< 0.1		
CCCCCC[C@H](NC(=O)[C@@H](NC(=O)[C@H](CC(C)C)NC(=O)[C@@H](NC(=O)CNC(=O)[C@@H](NC(=O)[C@H](C)NC(=O)[C@@H]1C[C@@H](O)CN1C(=O)[C@H](CC(N)=O)N(C)C(=O)CN(CCc1ccccc1)C(=O)[C@H](CCCNC(=N)N)NC(=O)[C@@H]1CCCN1C(=O)[C@@H](CCCCNC(=N)N)NC(=O)[C@@H](CCC(N)=O)NC(=O)C(C)(C)C(=O)NCCc1cnc[nH]1)c1ccccc1)[C@@H](C)CC)[C@@H](C)O)C(N)=O [compound 7] ({Malonyl(2,2-Me2,histaminyl)}-[dQ][d(hArg)]PR[Gly(NCH2CH2Ph)][NMeN][Hyp]A[Phg]GILT[Aoc(2)]-NH2)	> 10	< 0.1		
CCCCCC[C@H](NC(=O)[C@@H](NC(=O)[C@H](CC(C)C)NC(=O)[C@@H](NC(=O)CNC(=O)[C@@H](NC(=O)[C@H](C)NC(=O)[C@H](Cc1c[nH]cn1)NC(=O)[C@H](CC(N)=O)NC(=O)CN(CCc1ccccc1)C(=O)[C@H](CCCNC(=N)N)NC(=O)[C@@H]1CCCN1C(=O)[C@H](CCCCNC(=N)N)NC(=O)[C@H](CCC(N)=O)NC(=O)C(C)(C)C(=O)NCCc1cnc[nH]1)c1ccccc1)[C@@H](C)CC)[C@@H](C)O)C(N)=O [compound 2] ({Malonyl(2,2-Me2,histaminyl)}-Q[hArg]PR[Gly(NCH2CH2Ph)]NHA[Phg]GILT[Aoc(2)]-NH2)	> 10	< 0.1		
CCCC[C@H](NC(=O)[C@@H](NC(=O)[C@H](CC(C)C)NC(=O)[C@@H](NC(=O)CNC(=O)[C@@H](NC(=O)[C@H](C)NC(=O)[C@H](Cc1c[nH]cn1)NC(=O)[C@H](CC(N)=O)NC(=O)CNC(=O)[C@H](CO)NC(=O)[C@H](CCCNC(=N)N)NC(=O)[C@@H](N)Cc1c[nH]c2ccccc12)c1ccccc1)[C@@H](C)CC)[C@@H](C)O)C(N)=O [SEQ ID NO:8, TRP-ARG-SER-GLY-ASN-HIS-ALA-Phg-GLY-ILE-LEU-THR-NLE-NH2] (H-WRSGNHA[Phg]GILT[Nle]-NH2)			> 316	> 1.58
CCCCCC[C@H](NC(=O)[C@@H](NC(=O)[C@H](CC(C)C)NC(=O)[C@@H](NC(=O)CNC(=O)[C@@H](NC(=O)[C@H](C)NC(=O)[C@@H]1C[C@@H](O)CN1C(=O)[C@H](CC(N)=O)N(C)C(=O)CN(CCc1ccccc1)C(=O)[C@H](CCCNC(=N)N)NC(=O)[C@H](CCCNC(=N)N)NC(=O)[C@@H]1CCCN1C(=O)[C@H](CCCCNC(=N)N)NC(=O)[C@@H](CCC(N)=O)NC(=O)C(C)(C)C(=O)NCCc1cnc[nH]1)c1ccccc1)[C@@H](C)CC)[C@@H](C)O)C(N)=O [compound 19] ({Malonyl(2,2-Me2,histaminyl)}-[dQ][hArg]PRR[Gly(NCH2CH2Ph)][NMeN][Hyp]A[Phg]GILT[Aoc(2)]-NH2)	> 10	< 0.1		

Reference: patent US20250277001A1, “PEPTIDE DERIVATIVES AND RELATED USES AS OREXIN AGONISTS” (CENTESSA PHARMACEUTICALS (UK) LIMITED, priority 2022, published 2025)
